Measured values from US12414961B2, “Substituted nucleosides and nucleotides for treating viral infections” (priority 2013, dated 2025).

Key:
[1] = Cytotoxicity (CC50) HepG2; conditions: human, HepG2 cells
[2] = Cytotoxicity (CC50) Huh-7; conditions: human, Huh-7 cells
Dengue Type 2 [3] = assay: Anti-Dengue virus cytoprotection assay, Huh-7 cells; conditions: Huh-7, read-out: Dengue Type 2 Huh-7 Cells (EC50 uM)
[4] = Cytotoxicity in Huh-7 cells (Dengue assay); conditions: human, Huh-7 cells
Cytotoxicity (CC50) CEM = conditions: human, CEM cells
Tacaribe Virus = assay: microbe, parasite or virus in culture; assay type: cell-based, TCRV; conditions: Mammarenavirus tacaribeense, read-out: Tacaribe Virus EC50
Dengue Virus = Dengue Virus screening assay; assay type: cell-based, DENV
[5] = tested on: Influenza A H5N1 (low path); assay: microbe, parasite or virus in culture; assay type: cell-based; conditions: H5N1, read-out: Influenza A H5N1 (low path) EC50
VEEV = assay: microbe, parasite or virus in culture; assay type: cell-based; conditions: Venezuelan equine encephalitis virus, read-out: VEEV EC50
RVFV = assay: microbe, parasite or virus in culture; assay type: cell-based; conditions: Rift Valley fever virus, read-out: RVFV EC50
RSV = RSV antiviral assay; assay type: cell-based; conditions: human respiratory syncytial virus
CHIK Virus = CHIK Virus screening assay; assay type: cell-based, CHIKV; conditions: Chikungunya virus, read-out: CHIK Virus EC50
Influenza A H1N1 = Influenza A H1N1 antiviral assay; assay type: cell-based; conditions: Influenza A virus, H1N1, read-out: Influenza A H1N1 EC50
Measles = Measles antiviral assay; assay type: cell-based, Measles virus; conditions: Measles morbillivirus
SARS = assay: microbe, parasite or virus in culture; assay type: cell-based; conditions: Severe acute respiratory syndrome coronavirus, read-out: SARS EC50
West Nile Virus = West Nile Virus screening assay; assay type: cell-based, WNV; conditions: read-out: West Nile Virus EC50
Influenza A H3N2 = Influenza A H3N2 antiviral assay; assay type: cell-based; conditions: Influenza A virus, H3N2, read-out: Influenza A H3N2 EC50
Influenza B = Influenza B antiviral assay; assay type: cell-based; conditions: Influenza B virus
IEC-6 = assay: Cytotoxicity (CC50) IEC-6; assay type: cell-based; conditions: IEC-6
H9c = assay: Cytotoxicity (CC50) H9c; assay type: cell-based; conditions: H9c
HepG2 = assay: Cytotoxicity (CC50) HepG2; conditions: read-out: Cytotoxicity (CC50 uM) HepG2; HepG2
Huh-7 = assay: Cytotoxicity (CC50) Huh-7; conditions: read-out: Cytotoxicity (CC50 uM) Huh-7; Huh-7
BxPC3 = assay: Cytotoxicity (CC50) BxPC3; conditions: read-out: Cytotoxicity (CC50 uM) BxPC3; BxPC3
A204 = assay: Cytotoxicity (CC50) A204; assay type: cell-based; conditions: A204
CEM = assay: Cytotoxicity (CC50) CEM; conditions: read-out: Cytotoxicity (CC50 uM) CEM; CEM
GT1b replicon cells = assay: Cytotoxicity in GT1b replicon cells; assay type: cell-based
[6] = Cytotoxicity in Vero cells (Dengue assay); conditions: African green monkey
Dengue Type 2 [7] = assay: Anti-Dengue virus cytoprotection assay, Vero cells; conditions: read-out: Dengue Type 2 Vero Cells (EC50 uM)

Compound | EC50 (Tacaribe Virus) | EC50 (Dengue Virus) | EC50 [5] | EC50 (VEEV) | EC50 (RVFV) | EC50 (RSV) | EC50 (CHIK Virus) | EC50 (Influenza A H1N1) | EC50 (Measles) | EC50 (SARS) | EC50 (West Nile Virus) | EC50 (Influenza A H3N2) | EC50 (Influenza B) | further results
CC(C)OC(=O)[C@H](C)NP(=O)(OC[C@@]1(N=[N+]=[N-])O[C@@H](n2ccc(=S)[nH]c2=O)C(O)[C@H]1O)Oc1ccccc1 (stereo partly drawn) |  |  |  |  |  |  |  |  |  |  |  |  |  | CC50 [1]: > 400 µM; CC50 [2]: > 400 µM; EC50 (Dengue Type 2 [3]): 4.82 µM; CC50 [4]: > 100 µM; CC50 (Cytotoxicity (CC50) CEM): 229 µM
CNc1ccn([C@@H]2O[C@H](CO)[C@H](O)C2F)c(=O)n1 (stereo partly drawn) [EFVX-01853] | > 100 µg/mL | > 100 µg/mL | > 100 µM | > 100 µg/mL | > 100 µg/mL | > 100 µM | > 100 µg/mL | > 100 µM | > 100 µM | > 100 µM | > 100 µg/mL | > 100 µM | > 100 µM | 
CN(C)c1ccn([C@@H]2O[C@H](CO)[C@H](O)C2F)c(=O)n1 (stereo partly drawn) [EFVX-01854] | > 100 µg/mL | > 100 µg/mL | > 100 µM | > 100 µg/mL | > 100 µg/mL | > 100 µM | > 100 µg/mL | > 100 µM | > 100 µM | > 100 µM | > 100 µg/mL | > 100 µM | > 100 µM | 
Cc1cn([C@@H]2O[C@H](CO)[C@H](O)C2F)c(=O)nc1N (stereo partly drawn) [EFVX-01855] | > 100 µg/mL | > 100 µg/mL | > 100 µM | > 100 µg/mL | > 100 µg/mL | > 100 µM | > 100 µg/mL | > 100 µM | > 100 µM | > 100 µM | > 100 µg/mL | > 100 µM | > 100 µM | 
Nc1nc(=O)n([C@@H]2O[C@H](CO)[C@H](O)C2F)cc1CO (stereo partly drawn) [EFVX-01856] | > 100 µg/mL | > 100 µg/mL | > 100 µM | > 100 µg/mL | > 100 µg/mL | > 100 µM | > 100 µg/mL | > 100 µM | > 100 µM | > 100 µM | > 100 µg/mL | > 100 µM | > 100 µM | 
Nc1ccn([C@@H]2O[C@H](CO)[C@H](O)C2F)c(=S)n1 (stereo partly drawn) [EFVX-01857] | > 100 µg/mL | > 100 µg/mL | > 100 µM | > 100 µg/mL | > 100 µg/mL | > 100 µM | > 100 µg/mL | > 100 µM | > 100 µM | > 87 µM | > 100 µg/mL | > 100 µM | > 100 µM | 
CC(C)OC(=O)[C@H](C)NP(=O)(OC[C@H]1O[C@@H](n2ccc(=O)[nH]c2=S)[C@](C)(O)C1O)Oc1ccccc1 (stereo partly drawn) [drawing 366] |  |  |  |  |  |  |  |  |  |  |  |  |  | CC50 (IEC-6): > 200 µM; CC50 (H9c): > 200 µM; CC50 (HepG2): > 400 µM; CC50 (Huh-7): > 400 µM; CC50 (BxPC3): > 300 µM; CC50 (A204): 98 µM; CC50 (CEM): > 300 µM
CC(C)OC(=O)[C@H](C)NP(=O)(OC[C@H]1O[C@@H](n2ccc(=O)[nH]c2=S)[C@](C)(O)C1O)Oc1ccccc1 (stereo partly drawn) [drawing 369] |  |  |  |  |  |  |  |  |  |  |  |  |  | CC50 (IEC-6): > 200 µM; CC50 (BxPC3): > 300 µM; CC50 (A204): 98 µM
CC(C)OC(=O)[C@H](C)N[P@](=O)(OC[C@H]1O[C@@H](n2ccc(=O)[nH]c2=S)[C@](C)(O)C1O)Oc1ccccc1 (stereo partly drawn) [drawing 371] |  |  |  |  |  |  |  |  |  |  |  |  |  | CC50 (HepG2): > 400 µM; CC50 (Huh-7): 252 µM; CC50 (CEM): > 400 µM
CC(C)OC(=O)[C@H](C)N[P@](=O)(OC[C@H]1O[C@@H](n2ccc(=O)[nH]c2=O)[C@](C)(F)C1O)Oc1ccccc1 (stereo partly drawn) [drawing 373] |  |  |  |  |  |  |  |  |  |  |  |  |  | CC50 (HepG2): 365 µM; CC50 (Huh-7): 279 µM; CC50 (CEM): > 400 µM
CC(C)OC(=O)[C@H](C)NP(=O)(OC[C@H]1O[C@@H](n2ccc(=O)[nH]c2=S)[C@](C)(O)C1O)Oc1ccccc1 (stereo partly drawn) [drawing 383] |  |  |  |  |  |  |  |  |  |  |  |  |  | CC50 (GT1b replicon cells): > 10 µM
CC(C)OC(=O)[C@H](C)N[P@](=O)(OC[C@H]1O[C@@H](n2ccc(=O)[nH]c2=S)[C@](C)(O)C1O)Oc1ccccc1 (stereo partly drawn) [drawing 384] |  |  |  |  |  |  |  |  |  |  |  |  |  | CC50 (GT1b replicon cells): > 10 µM
CC(C)OC(=O)[C@H](C)N[P@](=O)(OC[C@H]1O[C@@H](n2ccc(=O)[nH]c2=O)[C@](C)(F)C1O)Oc1ccccc1 (stereo partly drawn) [drawing 385] |  |  |  |  |  |  |  |  |  |  |  |  |  | CC50 (GT1b replicon cells): > 2 µM
CC(C)OC(=O)[C@H](C)N[P@](=O)(OC[C@H]1O[C@@H](n2ccc(=O)[nH]c2=S)C(C)(O)[C@H]1O)Oc1ccccc1 (stereo partly drawn) [drawing 388] |  |  |  |  |  |  |  |  |  |  |  |  |  | CC50 [6]: > 100 µM; CC50 [1]: > 400 µM; CC50 [2]: 252 µM; EC50 (Dengue Type 2 [3]): 5.62 µM; CC50 [4]: > 100 µM; EC50 (Dengue Type 2 [7]): 2.35 µM; CC50 (Cytotoxicity (CC50) CEM): > 400 µM
